Assay results reported in PubChem BioAssay (NCI).
Several values for one entry are separate records, joined by “and”; a condition that tells them apart may be missing. Equal values may be shown once.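 How tested: cells in 96-well plates exposed to compound for 48 hours at five concentrations. GI50 marks 50% less growth. At the TGI there is no net growth.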

Assays:
Test in all cases: growth of human tumour cells (NCI), 48 h
HL-60(TB) leukemia = tested on: HL-60(TB) leukemia
OVCAR-8 ovarian = tested on: OVCAR-8 ovarian
HOP-62 NSCLC = tested on: HOP-62 NSCLC
SK-MEL-2 melanoma = tested on: SK-MEL-2 melanoma
M14 melanoma = tested on: M14 melanoma
SNB-75 CNS = tested on: SNB-75 CNS
SF-295 CNS = tested on: SF-295 CNS
MALME-3M melanoma = tested on: MALME-3M melanoma
SN12C renal = tested on: SN12C renal
A498 renal = tested on: A498 renal

SMILES	GI50 (HL-60(TB) leukemia) [µM]	TGI (HL-60(TB) leukemia)	GI50 (OVCAR-8 ovarian) [µM]	TGI (OVCAR-8 ovarian) [µM]	GI50 (HOP-62 NSCLC) [µM]	TGI (HOP-62 NSCLC)	GI50 (SK-MEL-2 melanoma) [µM]	TGI (SK-MEL-2 melanoma)	GI50 (M14 melanoma) [µM]	TGI (M14 melanoma)	GI50 (SNB-75 CNS) [µM]	TGI (SNB-75 CNS)	GI50 (SF-295 CNS) [µM]	TGI (SF-295 CNS)	GI50 (MALME-3M melanoma)	TGI (MALME-3M melanoma)	GI50 (SN12C renal) [µM]	TGI (SN12C renal)	GI50 (A498 renal) [µM]	TGI (A498 renal)
COc1cc(C2CC(c3ccc(N(C)C)cc3)=NN2C(C)=O)cc(OC)c1OC (stereo unspecified)	7.94	> 25.1 µM	6.13	> 100	2.16	> 100 µM	12.9	> 100 µM	1.39	> 100 µM	1.43	> 100 µM	0.374	> 100 µM	> 100 µM	> 100 µM	11.3	> 100 µM	2.18	> 47.4 µM
Cc1ccc(Sc2ccc(C)cc2[N+](=O)[O-])c([N+](=O)[O-])c1	–	> 100 µM	–	> 100	–	> 100 µM	–	> 100 µM	–	> 100 µM	–	> 100 µM	–	> 100 µM	–	> 100 µM	–	> 100 µM	–	> 100 µM
C=C1CCC2C3(C)COC(c4ccccc4Br)OC3CCC2(C)C1C/C=C1/C(=O)OCC1OC(C)=O (stereo unspecified)	0.708	2.98 µM	0.584	1.8	1.94	3.46 µM	1.72	3.4 µM	1.53	2.86 µM	1.17	2.46 µM	1.82	4.57 µM	1.92 µM	4.12 µM	1.36	3.28 µM	1.6	3.91 µM
CN(C(=O)c1ccncc1)c1ccccc1	–	> 100 µM	–	> 100	–	> 100 µM	–	> 100 µM	–	> 100 µM	–	> 100 µM	–	> 100 µM	–	> 100 µM	–	> 100 µM	–	> 100 µM
COC(=O)C(F)C(Br)C(=O)OC (stereo unspecified)	–	3.93 µM	–	12.6	–	35.7 µM	–	32.6 µM	–	13.4 µM	–	31 µM	–	70.1 µM	–	16.5 µM	–	30.9 µM	–	43.9 µM
Nc1nc(N)c(N=O)c(OCC2CCCCC2)n1	10.7	53.8 µM and 58.9 µM	–	> 100	–	> 100 µM and 76.5 µM	8.52	32.8 µM and 24.6 µM	11.8	> 100 µM and 52.2 µM	–	42.3 µM and 50.2 µM	–	61.2 µM and 77.2 µM	3.06 µM and 7.32 µM	36.8 µM and 52.7 µM	5.87	> 100 µM and 62.8 µM	–	43 µM and 50.2 µM
C1CCOC2(CCC3(CC2)OCCCCO3)OC1	–	> 100 µM	–	> 100	–	> 100 µM	–	> 100 µM	–	> 100 µM	–	> 100 µM	–	–	–	> 100 µM	–	> 100 µM	–	> 100 µM
COc1ccc(-c2nn(-c3cccc(Cl)c3)cc2-c2cc(-c3ccccc3)nc(N)n2)cc1	2.53	6.21 µM	1.9	3.78	2.5	6.41 µM	3.23	10.7 µM	2.69	13.2 µM	4.32	22 µM	3.12	11.7 µM	8.95 µM	31.8 µM	1.9	5.02 µM	2.21	11.9 µM
O=C1NC2C=CN(Cc3ccccc3)C=C2C(=O)N2CCCC12 (stereo unspecified)	–	> 100 µM	–	> 100	–	> 100 µM	–	> 100 µM	–	> 100 µM	–	> 100 µM	–	> 100 µM	–	> 100 µM	–	> 100 µM	–	> 100 µM
COc1cc(/C=C/C(=O)c2sc(NNC(C)=O)nc2C)ccc1O	–	> 100 µM	–	> 100	–	> 100 µM	–	> 100 µM	–	–	–	> 100 µM	–	> 100 µM	–	> 100 µM	–	> 100 µM	–	> 100 µM
CCCCNC(=O)NS(=O)(=O)c1ccc(N2N=C(c3cc(C)ccc3C)CC2c2cc(OC)c(OC)c(OC)c2)cc1 (stereo unspecified)	2.87	7.62 µM	3.03	10.5	3.15	10.2 µM	2.2	4.84 µM	2.14	5.97 µM	2.12	5.83 µM	–	–	2.4 µM	6.83 µM	3.36	13.4 µM	2.31	6.01 µM
COc1ccc(/C=C2\CCC(CN(C)C)C2=O)cc1OC (stereo unspecified)	–	8.62 µM	–	8.25	–	39.9 µM	–	26.9 µM	–	16.1 µM	–	30.5 µM	–	29.2 µM	–	11.7 µM	–	8.35 µM	–	27.8 µM
CC(C)c1ccc(Nc2nccc(-c3cnn4ncccc34)n2)cc1	1.32	4.12 µM	0.555	3.74	0.563	2.59 µM	0.411	1.13 µM	0.688	2.48 µM	0.484	1.17 µM	0.523	12.2 µM	1.04 µM	4.01 µM	0.66	> 17.9 µM	0.542	1.48 µM
Nc1ccc(-c2ccc(N)cc2I)c(I)c1	18.4	47.6 µM	27.1	94.7	17.5	39.4 µM	15.9	37.4 µM	12.2	34.4 µM	10.8	73.8 µM	15.5	33.9 µM	11.9 µM	36.7 µM	19.7	55.8 µM	10.7	24.1 µM
N.N.NCCCCCCN.O=C([O-])CC(=O)[O-].O=C([O-])CC(=O)[O-].[Pt+4].[Pt+4]	23.7	> 100 µM	> 100	> 100	38.7	> 100 µM	> 100	> 100 µM	> 86.7	> 100 µM	38.7	> 100 µM	> 71.6	> 100 µM	> 100 µM	> 100 µM	14.5	> 100 µM	> 100	> 100 µM
O=C(c1cccnc1)c1cc(-c2ccccn2)c(=O)n2ccccc12	> 100	> 100 µM	> 100	> 100	> 100	> 100 µM	> 100	> 100 µM	> 100	> 100 µM	> 100	> 100 µM	> 100	> 100 µM	> 100 µM	> 100 µM	> 100	> 100 µM	> 100	> 100 µM
